Measurements: US11447504B2, “Macrocyclic chlorine substituted indole derivatives” (Bayer Aktiengesellschaft, priority 2017, dated 2022)
Structures can show the parent of a compound that is named as a salt. Where two headings read alike, the source gives them in different places.

Key:
SUDHL5 [1] = test: Antiproliferation assay 7, SUDHL5; assay type: cell-based; conditions: SUDHL5 cells, CellTiter-Glo, read-out: Antiproli SUDHL5 IC50 (median)
Protocol: (§1) Assessment of the Anti-Proliferative Effect of Compounds in Different Cell Lines
(§2) The impact of compounds on the proliferation of different cell lines was assessed using the CellTiter-Glo® Luminescent Cell Viability reagent from Promega (G7573).
(§3) In parallel, cells were plated in a reference (day 0) plate for time zero determination.
(§4) Rim wells were excluded. The cells were incubated for 72 hours in a humidified incubator at 37° C. The day 0 plate was measured by adding 30 μL/well of CTG solution (CellTiter-Glo® Luminescent Cell Viability reagent, Promega G7573) to time zero wells in the reference plate followed by a 10 minutes incubation and luminescence reading at 0.1 ms. using the PHERAstar FS microplate reader (BMG Labtech).
(§5) After 72 hours incubation, the treated plates were measured in the same way as the day 0 plate mentioned above.

SUDHL5 [2] = test: Induction of caspase-3/7 activity (Assay 4), SUDHL5; assay type: cell-based; conditions: SUDHL5 cells
Protocol: (§6) Induction of Caspase-3/7 Activity Upon Treatment of Cells with Selected Compounds
The BH3-domain of MCL-1 sequesters pro-apoptotic proteins, thereby inhibiting apoptosis. In contrast, MCL-1 inhibitors are expected to antagonize this effect leading to an increase in apoptosis, which can be determined by measuring the activity of caspase-3/7.
(§7) The activity of caspase-3/7 was determined in DLBCL (Diffuse large B-cell lymphoma) cell lines (SUDHL5 and SUDHL10) upon treatment with different compounds, using the Caspase-Glo®3/7 reagent from Promega (G8092).
(§8) Rim wells were excluded. The cells were incubated for 3 hours in a humidified incubator at 37° C.
(§9) For the evaluation of the results, the background measured with “medium-only” was subtracted from all other values.

SUDHL10 [3] = test: Induction of cytotoxicity (Assay 6), SUDHL10
MV-4-11 = test: Antiproliferation assay 7, MV-4-11; assay type: cell-based; conditions: MV-4-11 cells, CellTiter-Glo, read-out: Antiproli MV-4-11 IC50 median
Protocol: as §1, §2, §3, §4, §5

SUDHL5 [4] = test: Induction of cytotoxicity (Assay 6), SUDHL5
SUDHL10 [5] = test: Induction of caspase-3/7 activity (Assay 4), SUDHL10; assay type: cell-based; conditions: SUDHL10 cells
Protocol: as §6
In contrast, MCL-1 inhibitors are expected to antagonize this effect leading to an increase in apoptosis, which can be determined by measuring the activity of caspase-3/7.
as §7, §8, §9

AMO-1 = test: Antiproliferation assay 7, AMO-1; assay type: cell-based; conditions: AMO-1 cells, CellTiter-Glo, read-out: Antiproli AMO-1 IC50 median
Protocol: as §1, §2, §3, §4, §5

[6] = Homo sapiens, SU-DHL-5, 3 h, Caspase-Glo 3/7, read-out: Caspase SUDHL5 EC50 (median)
[7] = Homo sapiens, SU-DHL10, 5 h, read-out: Cytotox SUDHL10 IC50 (median), SUDHL10 cells, 5 hours, CellTiter-Glo
[8] = Homo sapiens, SU-DHL-5, 5 h, read-out: Cytotox SUDHL5 IC50 (median), SUDHL5 cells, 5 hours, CellTiter-Glo
[9] = Homo sapiens, SU-DHL10, 3 h, Caspase-Glo 3/7, read-out: Caspase SUDHL10 EC50 (median)
[10] = 3 hours, Caspase-Glo 3/7, read-out: Caspase SUDHL5 EC50 (median)
[11] = read-out: Cytotox SUDHL10 IC50 (median), SUDHL10 cells, 5 hours, CellTiter-Glo
[12] = read-out: Cytotox SUDHL5 IC50 (median), SUDHL5 cells, 5 hours, CellTiter-Glo
[13] = 3 hours, Caspase-Glo 3/7, read-out: Caspase SUDHL10 EC50 (median)

IC50 (SUDHL5 [1]; Homo sapiens, SU-DHL-5, 72 h) | EC50 (SUDHL5 [2]; [6]) | IC50 (MV-4-11; Homo sapiens, MV4-11, 72 h) | EC50 (SUDHL10 [5]; [9]) | IC50 (SUDHL5 [1]; 72 hours) | EC50 (SUDHL5 [2]; [10]) | EC50 (SUDHL10 [5]; [13]) | Compound | IC50 (SUDHL10 [3]; [7]) | IC50 (SUDHL5 [4]; [8]) | IC50 (AMO-1; Homo sapiens, AMO1, 72 h) | IC50 (SUDHL10 [3]; [11]) | IC50 (MV-4-11; 72 hours) | IC50 (SUDHL5 [4]; [12]) | IC50 (AMO-1; 72 hours)
3 µM | 2.9 µM | 8.08 µM | 5.8 µM |  |  |  | Cc1c2c(nn1C)CNCCCn1c(C(=O)O)c(CCCOc3cccc4ccccc34)c3ccc(Cl)c-2c31 (racemic) [Example 28, (rac)-12-chloro-10,11-dimethyl-1-[3-(naphthalen-1-yloxy)propyl]-4,5,6,7,8,10-hexahydropyrazolo[3′,4′:7,8][1,5]diazecino[9,10,1-hi]indole-2-carboxylic Acid-Formic Acid Salt] | 5.6 µM | 3.3 µM |  |  |  |  | 
 | 1.2 µM | 2.68 µM | 3.7 µM |  |  |  | Cc1c2c(nn1C)CN(C)CCCn1c(C(=O)O)c(CCCOc3cccc4ccccc34)c3ccc(Cl)c-2c31 (racemic) [Example 29, (rac)-12-chloro-7,10,11-trimethyl-1-[3-(naphthalen-1-yloxy)propyl]-4,5,6,7,8,10-hexahydropyrazolo[3′,4′:7,8][1,5]diazecino[9,10,1-hi]indole-2-carboxylic Acid] | 3.2 µM |  |  |  |  |  | 
 | 0.67 µM | 1.7 µM | 5.7 µM |  |  |  | CCc1nn(C)c2c1-c1c(Cl)ccc3c(CCCOc4cccc5cc(F)ccc45)c(C(=O)O)n(c13)CCCCOC2 (racemic) [Example 33, (rac)-4-chloro-3-ethyl-7-{3-[(6-fluoronaphthalen-1-yl)oxy]propyl}-1-methyl-1,10,11,12,13,15-hexahydropyrazolo[4′,3′:9,10][1,6]oxazacycloundecino[8,7,6-hi]indole-8-carboxylic Acid] |  | 1 µM | 1.58 µM |  |  |  | 
4.9 µM | 6.6 µM | 10.9 µM | 14 µM |  |  |  | CCc1nn(CCN2CCOCC2)c2c1-c1c(Cl)ccc3c(CCCOc4cccc5ccccc45)c(C(=O)O)n(c13)CCCCOC2 (single isomer, unassigned; enantiomer 2) [Example 10, 4-chloro-3-ethyl-1-[2-(morpholin-4-yl)ethyl]-7-[3-(naphthalen-1-yloxy)propyl]-1,10,11,12,13,15-hexahydropyrazolo[4′,3′:9,10][1,6]oxazacycloundecino[8,7,6-hi]indole-8-carboxylic acid-N-ethylethanamine Salt (Enantiomer 2)] | 11 µM | 5.2 µM |  |  |  |  | 
 |  |  |  | 3.3 µM | 4.6 µM |  | CCc1c2c(nn1C)COCCCCn1c(C(=O)O)c(CCCOc3cccc4ccccc34)c3ccc(Cl)c-2c31 (single isomer, unassigned; enantiomer 2) [Example 21, 4-chloro-3-ethyl-2-methyl-7-[3-(naphthalen-1-yloxy)propyl]-2,10,11,12,13,15-hexahydropyrazolo[4′,3′:9,10][1,6]oxazacycloundecino[8,7,6-hi]indole-8-carboxylic Acid (Enantiomer 2)] |  |  |  | 11 µM |  | 3.7 µM | 
 |  |  |  | 3.4 µM |  | 10 µM | CCc1c2c(nn1C)CN(C)CCCCn1c(C(=O)O)c(CCCOc3cccc4ccccc34)c3ccc(Cl)c-2c31 (single isomer, unassigned; enantiomer 2) [Example 24, 4-chloro-3-ethyl-2,14-dimethyl-7-[3-(naphthalen-1-yloxy)propyl]-10,11,12,13,14,15-hexahydro-2H-pyrazolo[3′,4′:8,9][1,6]diazacycloundecino[10,11,1-hi]indole-8-carboxylic Acid (Enantiomer 2)] |  |  |  | 7.4 µM | 6.72 µM | 4.7 µM | 
 |  |  |  | 6.1 µM | 7.6 µM | 22 µM | CCc1nn(C)c2c1-c1c(Cl)ccc3c(CCCOc4cccc5cc(F)ccc45)c(C(=O)O)n(c13)CCCCOC2 (single isomer, unassigned; enantiomer 2) [Example 35, (−)-4-chloro-3-ethyl-7-{3-[(6-fluoronaphthalen-1-yl)oxy]propyl}-1-methyl-1,10,11,12,13,15-hexahydropyrazolo[4′,3′:9,10][1,6]oxazacycloundecino[8,7,6-hi]indole-8-carboxylic Acid (Enantiomer 2)] |  |  |  |  | 8.59 µM | 6.3 µM | 13.3 µM
 |  |  |  | 7.1 µM | 24 µM | 23 µM | CCc1c2c(nn1C)N(CCC1CCOCC1)CCCCCn1c(C(=O)O)c(CCCOc3cccc4cc(F)ccc34)c3ccc(Cl)c-2c31 (single isomer, unassigned; enantiomer 2) [Example 82, 4-chloro-3-ethyl-7-{3-[(6-fluoronaphthalen-1-yl)oxy]propyl}-2-methyl-15-[2-(oxan-4-yl)ethyl]-10,11,12,13,14,15-hexahydro-2H-pyrazolo[4′,3′:4,5][1,6]diazacycloundecino[3,2,1-hi]indole-8-carboxylic acid N-ethylethanamine Salt—Enantiomer 2] |  |  |  | 30 µM |  | 28 µM | 
 |  |  |  | 4.2 µM | 1.8 µM | 8.3 µM | Cc1c2c(nn1C)COCC1CCC1Cn1c(C(=O)O)c(CCCOc3cccc4ccccc34)c3ccc(Cl)c-2c31 (single isomer, unassigned; stereoisomer 2) [Example 64] |  |  |  | 7.3 µM |  | 2.3 µM | 10.8 µM

Compound | IC50 (SUDHL5 [1]; Homo sapiens, SU-DHL-5, 72 h) | EC50 (SUDHL5 [2]; [6]) | IC50 (MV-4-11; Homo sapiens, MV4-11, 72 h) | EC50 (SUDHL10 [5]; [9]) | IC50 (SUDHL5 [1]; 72 hours) | EC50 (SUDHL5 [2]; [10]) | EC50 (SUDHL10 [5]; [13]) | IC50 (SUDHL10 [3]; [7]) | IC50 (SUDHL5 [4]; [8]) | IC50 (AMO-1; Homo sapiens, AMO1, 72 h) | IC50 (SUDHL10 [3]; [11]) | IC50 (MV-4-11; 72 hours) | IC50 (SUDHL5 [4]; [12]) | IC50 (AMO-1; 72 hours)
Cc1c2c(nn1C)CN(C)CCCCn1c(C(=O)O)c(CCCOc3cccc4ccccc34)c3ccc(Cl)c-2c31 (single isomer, unassigned; enantiomer 2) [Example 13, (−)-4-chloro-2,3,14-trimethyl-7-[3-(naphthalen-1-yloxy)propyl]-10,11,12,13,14,15-hexahydro-2H-pyrazolo[3′,4′:8,9][1,6]diazacycloundecino[10,11,1-hi]indole-8-carboxylic acid-N-ethylethanamine Salt (Enantiomer 2)] |  |  |  |  | 6.4 µM | 10 µM |  |  |  |  | 13 µM | 12.2 µM | 6.9 µM | 
Cc1c2c(nn1C)COCCCCn1c(C(=O)O)c(CCCOc3cccc4cc(F)ccc34)c3ccc(Cl)c-2c31 (single isomer, unassigned; enantiomer 2) [Example 17, (−)-4-chloro-7-{3-[(6-fluoronaphthalen-1-yl)oxy]propyl}-2,3-dimethyl-2,10,11,12,13,15-hexahydropyrazolo[4′,3′:9,10][1,6]oxazacycloundecino[8,7,6-hi]indole-8-carboxylic acid-N-ethylethanamine Salt (Enantiomer 2)] |  |  |  |  | 1.5 µM | 3.6 µM | 5.2 µM |  |  |  |  | 6.7 µM | 3.3 µM | 8.91 µM
Cc1c2c(nn1C)COCCCCn1c(C(=O)O)c(CCCOc3cccc4ccccc34)c3ccc(Cl)c-2c31 (single isomer, unassigned; enantiomer 2) [Example 27, 4-chloro-2,3-dimethyl-7-[3-(naphthalen-1-yloxy)propyl]-2,10,11,12,13,15-hexahydropyrazolo-[4′,3′:9,10][1,6]oxazacycloundecino[8,7,6-hi]indole-8-carboxylic acid-N-ethylethanamine Salt (Enantiomer 2)] |  |  |  |  | 7.8 µM | 16 µM | 23 µM |  |  |  | 20 µM | 16.1 µM | 10 µM | 
